Data: the NIST ThermoML archive (doi:10.1016/j.fluid.2013.01.027)
± gives the expanded uncertainty stated by the source.

details: 298.15 K; 101.33 kPa; Liquid; Vibrating tube method

Structure (SMILES) | mass density [kg/m3]
CCCC[N+]1(C)CCCC1.FC(F)(F)C(F)(F)[P-](F)(F)(F)(C(F)(F)C(F)(F)F)C(F)(F)C(F)(F)F | 1582.63 ± 0.76
c1ccccc1 [benzene] | 873.53 ± 0.14
CCCCO [butan-1-ol] | 805.78 ± 0.15
CCCCCCCCCCO [decan-1-ol] | 826.38 ± 0.14
CCCCCCCCCCCCO [dodecan-1-ol] | 823.35 ± 0.24
CCc1ccccc1 [ethylbenzene] | 862.97 ± 0.16
CCCCCCO [hexan-1-ol] | 814.94 ± 0.15
CCCCCCCCO [octan-1-ol] | 823.27 ± 0.14
CCCc1ccccc1 [propylbenzene] | 858.62 ± 0.24
c1ccsc1 [thiophene] | 1058.48 ± 0.28
Cc1ccccc1 [toluene] | 863.67 ± 0.14
